Results published in paper PMC6614837 (Nucleic Acids Research, 2019).

Columns and labels:
[1] = target: T1, RNase P holoenzyme from Thermotoga maritima (Thermotoga maritima, UniProt Q9X1H4); assay: Real-time fluorescence-based (FRET) RNase P activity assay with minihelix (Mh) substrate; type: biochemical; settings: for IC50: fluorescent Mh substrate 270 nM, holoenzyme 33 nM, 10% DMSO, 37°C, 400 mM AmOAc, 100 mM MgCl2
T1 construct: made in house
T1 sequence (Q9X1H4 1-117): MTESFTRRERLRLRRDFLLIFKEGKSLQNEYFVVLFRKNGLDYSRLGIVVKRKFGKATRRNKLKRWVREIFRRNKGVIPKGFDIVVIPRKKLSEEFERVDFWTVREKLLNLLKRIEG
Summary of the method: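 Reconstituted holoenzyme (P RNA:P protein 1:1.1) at 33 nM with 270 nM minihelix labelled Alexa Fluor 488/BHQ quencher, in buffer H (pH 7.4, 400 mM AmOAc, 100 mM MgCl2), 10% DMSO, 37°C. Cleavage followed as fluorescence increase (ex 485, em 535 nm); initial velocities from linear slopes.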

[2] = target: T1, RNase P holoenzyme from Thermotoga maritima; assay: Real-time fluorescence-based RNase P activity assay with bipartite pre-tRNA substrate; type: biochemical; settings: fluorescent bipartite pre-tRNA substrate, holoenzyme 33 nM, 10% PEG 200 in place of DMSO
Description: The reconstitution of the RNase P holoenzyme was performed as described in ([40],[19]). This protocol produces a homogeneous and functional ribozyme that can be crystallized by mixing P RNA and P protein in a 1:1.1 molar ratio in 1× TH buffer (33 mM Tris–HCl, 66 mM HEPES, pH 7.4) and 400 mM ammonium acetate (AmOAc). The mixture was heated to 95°C for 2 min in a water bath, then chilled on ice for 2 min, after which MgCl2 was added to a final concentration of 100 mM. […] This higher concentration was used in all experiments described herein. The holoenzyme was further incubated at 50°C for 10 min and 37°C for 40 min. The final concentration of holoenzyme was 333 nM (35.6 μg/ml of P RNA and 4.7 μg/ml of P protein).
The bipartite pre-tRNA substrate derived from pre-tRNA^Phe from T. maritima (Supplementary Figure S13) was designed for the ease of chemical synthesis and conceived from the fact that the anticodon loop is not required for RNase P recognition (Reiter et al.). As for the Mh substrate, fluorescent bipartite pre-tRNA was coupled to Black Hole Quencher 1 (BHQ1) at the 5′-end of the 5′ oligo, and to Alexa Fluor 488 at the 3′-end of the 3′ oligo (see Supplementary Table S1). The probes were purchased from Integrated DNA Technologies (IDT). A requested scale of 250 nmol yielded 27.4 nmol (0.36 mg) for the 5′ oligo and 3.8 nmol (50 μg) for the 3′ fluorescent oligo. Before use, the probes were diluted from a 100 μM stock (dissolved in water) and assembled by mixing and heating to 3.6 μM in activity buffer L (Tris–HCl pH 7.4 33 mM, HEPES 66 mM, 100 mM AmOAc and 10 mM MgCl2).
Reactions were performed in a total volume of 20 μl. Pipetting was done by hand using multichannel pipettes. First, an 18 μl reaction mixture containing 16.5 μl of activity buffer (H for Mh or L supplemented with 10% PEG 200 for bipartite pre-tRNA) and 270 nM (Mh) or 135 nM (bipartite pre-tRNA) (1.5 or 0.7 μl of the 3.6 μM stock) of the fluorescent substrate probe was pre-incubated on ice for at least 5 m in a black polystyrene 384-well microtiter microplate with a flat transparent bottom (Corning ref 3540). The holoenzyme was then added at a final concentration of 33 nM (2 μl of a 333 nM stock) in 1× TH buffer and mixed. Kinetic activity was monitored in a Synergy MX Multimode Detector (BioTek) at 37°C with rapid agitation. At least 20 readings were taken per well every 15 s. The probe was excited at 485 nm, and its emission was monitored at 535 nm with an integration time of 1 s. From the plots of relative fluorescent units (RFU) versus time, linear regression was used to determine the slopes in the linear portion of the curves, using at least 12 data points to obtain initial velocities. Non-linear fitting to obtain the Michaelis–Menten parameters was performed using GraphPad Prism® 6.01 software. […]

| SMILES | IC50 [1] | IC50 [2] | Ki ([1]; competitive inhibition model, varying fluorescent Mh substrate) |
| --- | --- | --- | --- |
| O=C1C=C2CC3(O)COc4c(ccc(O)c4O)C3=C2C=C1O (stereo not shown) [Hematein, 3,4,6a,10-tetrahydroxy-6a,7-dihydroindeno[2,1-c]chromen-9(6H)-one] | 4.5 ± 0.9 µM | 87.9 ± 19.7 µM | – |
| O=C1C=CC(=O)c2c(O)cccc21 [Juglone, 5-hydroxy-1,4-naphthoquinone] | 12.8 ± 1.9 µM | 11.9 ± 1.7 µM | – |
| O=C1c2ccccc2C(=O)c2c(O)c(O)cc(O)c21 [Purpurin, 1,2,4-trihydroxyanthraquinone] | 96.2 ± 21.7 µM | 13.1 ± 2.3 µM | 1.9 ± 0.4 µM |
